According to patent US20240009276A1, “S[…] OF IMMUNITY AGAINST RNA VIRUSES” (Health Research, Inc., priority 2020, published 2024):

What was measured:
[1] = tested on: Human epithelial cells (SW620); format: cell-based; set-up: key to synergy of combination with Poly-IC / synergy of combination with rintatolimod / synergy of combination with TNFα: Yes*: *Direct support by current data (Rintatolimod and poly-IC share binding to TLR3 but not other immunostimulatory properties/recognition receptors/signaling pathways^3)
SARS-CoV = conditions: mouse, in vivo; cited from earlier work
human coronavirus OC43 = conditions: human coronavirus OC43, BS-C-1 kidney cells; cited from earlier work
[2] = cited from earlier work

Substance	induction of genes involved in SARS-Cov elimination (OAS2, Ifit-1, Mx1, RIG-I, MDA5, TLR3, other ISGs) [1]	antiviral/survival effect (SARS-CoV)	EC50 (human coronavirus OC43) [µg/mL]	easily achievable concentration in humans [2] [µg/mL]	synergy of combination with Poly-IC [1]	synergy of combination with TNFα [1]	synergy of combination with rintatolimod [1]
polyinosinic:polycytidylic acid [poly-I:C, reference compound]	synergistic effects	–	–	–	–	–	–
rintatolimod [reference compound]	synergistic effects	significant antiviral/survival effect	0.4	40	–	–	–
IFNγ	–	–	–	–	Yes*	Yes*	Yes*
IFNα	–	significant antiviral/survival effect	–	–	Yes*	Yes*	Yes*
